Test results: US12415786B2, “Substituted 2-heteroarylaminobenzenes and the salts thereof and their use as herbicidal agents” (Bayer Aktiengesellschaft, priority 2019, dated 2025)

Columns and labels:
Type in all cases: in vivo
[1] = test system: Poa annua; test: Herbicidal pre-emergence action (greenhouse pots), POAAN; details: 1280 g/ha, visual scoring after about 3 weeks vs untreated controls
How it was run: (§1)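 Weed seeds sown in sandy loam in pots, covered, then soil surface sprayed with WP or EC formulations plus 0.5% additive at 600 L/ha water (converted), 1280 g/ha. Kept in greenhouse ~3 weeks; injury scored visually as % versus untreated controls (100% = dead).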

[2] = test system: Poa annua; test: Herbicidal early post-emergence action (96-well microtiter plates), POAAN; details: 1900 g/ha, scored 9 to 12 days after treatment, 100% = plants have died, 0% = like untreated control plants
How it was run: (§2)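 Weed seeds grown in quartz sand in 96-well microtiter plates in a climate chamber and treated at the cotyledon stage, 5 to 7 days after sowing, with EC formulations at 2200 L/ha water and a rate equivalent to 1900 g/ha. Visual scoring after 9 to 12 days against untreated controls (0% = control, 100% = dead).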

[3] = test system: Echinochloa crus-galli; test: Herbicidal pre-emergence action (greenhouse pots), ECHCG; details: 1280 g/ha, visual scoring after about 3 weeks vs untreated controls
How it was run: as §1

[4] = test system: Lolium rigidum; test: Herbicidal post-emergence action (greenhouse pots), LOLRI; details: 1280 g/ha, rated after about 3 weeks, 100% = plants have died, 0% = like untreated control plants
Excerpt: (§3) In the examples and tables below, the following abbreviations are used: • Undesired Plants/Weeds: • ABUTH: Abutilon theophrasti • AGSTE: Agrostis tenuis • AMARE Amaranthus retroflexus • ECHCG: Echinochloa crus-galli • LOLRI: Lolium rigidum • MATIN: Matricaria inodora • POAAN: Poa annua • SETVI: Setaria viridis • STEME: Stellaria media A. Herbicidal Early Post-Emergence Action Seeds of mono- and dicotyledonous weed plants were placed in plastic pots in sandy loam soil (doubly sown with in each case one species of mono- or dicotyledonous weed plants per pot), covered with soil and cultivated in a greenhouse under controlled growth conditions. 2 to 3 weeks after sowing, the test plants were treated at the one-leaf stage. The compounds of the invention, formulated in the form of wettable powders (WP) or as emulsion concentrates (EC), were applied onto the green parts of the plants as aqueous suspension or emulsion with addition of 0.5% additive at a water application rate of 600 liters per hectare (converted). After the test plants had been kept in the greenhouse under optimum growth conditions for about 3 weeks, the activity of the preparations was rated visually in comparison to untreated controls. For example, 100% activity=the plants have died, 0% activity=like untreated control plants. Tables B1-B8 below show the effects of selected compounds of the general formula (I) according to Table 1 above on various harmful plants and an application rate corresponding to 1280 g/ha, which were obtained by the experimental procedure mentioned above.

[5] = test system: Matricaria inodora; test: Herbicidal pre-emergence action (greenhouse pots), MATIN; details: 1280 g/ha, visual scoring after about 3 weeks vs untreated controls
How it was run: as §1

[6] = test system: Matricaria inodora; test: Herbicidal post-emergence action (greenhouse pots), MATIN; details: 1280 g/ha, visual rating about 3 weeks after treatment vs untreated controls
Excerpt: as §3

[7] = test system: Setaria viridis; test: Herbicidal pre-emergence action (greenhouse pots), SETVI; details: 1280 g/ha, visual scoring after about 3 weeks vs untreated controls
How it was run: as §1

[8] = test system: Abutilon theophrasti; test: Herbicidal pre-emergence action (greenhouse pots), ABUTH; details: 1280 g/ha, visual scoring after about 3 weeks vs untreated controls
How it was run: as §1

[9] = test system: Abutilon theophrasti; test: Herbicidal post-emergence action (greenhouse pots), ABUTH; details: 1280 g/ha, visual rating about 3 weeks after treatment vs untreated controls
How it was run: (§4)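 Weeds were sown in sandy loam and treated at the one-leaf stage, 2–3 weeks after sowing. WP or EC formulations were applied with 0.5% additive at 600 L/ha water, at a rate of 1280 g/ha. Activity was rated visually after about 3 weeks against untreated controls (0% = untreated, 100% = dead).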

[10] = test system: Echinochloa crus-galli; test: Herbicidal post-emergence action (greenhouse pots), ECHCG; details: 1280 g/ha, rated after about 3 weeks, 100% = plants have died, 0% = like untreated control plants
How it was run: as §4

[11] = test system: Stellaria media; test: Herbicidal post-emergence action (greenhouse pots), STEME; details: 1280 g/ha, visual rating about 3 weeks after treatment vs untreated controls
How it was run: as §4

[12] = test system: Lolium rigidum; test: Herbicidal pre-emergence action (greenhouse pots), LOLRI; details: 1280 g/ha, visual scoring after about 3 weeks vs untreated controls
How it was run: as §1

[13] = test system: Agrostis tenuis; test: Herbicidal early post-emergence action (96-well microtiter plates), AGSTE; details: 1900 g/ha, scored 9 to 12 days after treatment, 100% = plants have died, 0% = like untreated control plants
How it was run: as §2

[14] = test system: Setaria viridis; test: Herbicidal post-emergence action (greenhouse pots), SETVI; details: 1280 g/ha, rated after about 3 weeks, 100% = plants have died, 0% = like untreated control plants
How it was run: as §4

[15] = test system: Amaranthus retroflexus; test: Herbicidal pre-emergence action (greenhouse pots), AMARE; details: 1280 g/ha, visual scoring after about 3 weeks vs untreated controls
How it was run: as §1

[16] = test system: Stellaria media; test: Herbicidal pre-emergence action (greenhouse pots), STEME; details: 1280 g/ha, visual scoring after about 3 weeks vs untreated controls
How it was run: as §1

[17] = test system: Poa annua; test: Herbicidal post-emergence action (greenhouse pots), POAAN; details: 1280 g/ha, visual rating about 3 weeks after treatment vs untreated controls
How it was run: as §4

[18] = test system: Amaranthus retroflexus; test: Herbicidal post-emergence action (greenhouse pots), AMARE; details: 1280 g/ha, visual rating about 3 weeks after treatment vs untreated controls
How it was run: as §4

## N#Cc1cccc(Nc2ncc(F)cn2)c1Oc1ccc(F)nc1 [Example 3-53]
[1]
  herbicidal activity POAAN: 100%
[2]
  POAAN (herbicidal activity, scored visually in comparison to untreated controls): 100%
[3]
  herbicidal activity ECHCG: 100%
[4]
  LOLRI (herbicidal activity, rated visually in comparison to untreated controls): 90%
[5]
  herbicidal activity MATIN: 100%
[6]
  herbicidal activity MATIN: 90%
[7]
  herbicidal activity SETVI: 100%
[8]
  herbicidal activity ABUTH: 100%
[9]
  herbicidal activity ABUTH: 100%
[10]
  ECHCG (herbicidal activity, rated visually in comparison to untreated controls): 100%
[11]
  herbicidal activity STEME: 100%
[12]
  herbicidal activity LOLRI: 100%
[13]
  AGSTE (herbicidal activity, scored visually in comparison to untreated controls): 100%
[14]
  SETVI (herbicidal activity, rated visually in comparison to untreated controls): 90%
[15]
  herbicidal activity AMARE: 100%
[16]
  herbicidal activity STEME: 100%
[17]
  herbicidal activity POAAN: 100%
[18]
  herbicidal activity AMARE: 100%
